The text below walks through data of patent US9511073B2, “Aromatic amides and uses thereof” (TAXIS Pharmaceuticals, Inc., priority 2011, dated 2016).

≈ marks a conversion by molar mass, not a printed value.

This experiment has as its system Staphylococcus aureus (Isolate ID ATCC 29213). In words: Bacterial assay: MIC by broth microdilution or agar dilution (CLSI), S. aureus ATCC 29213. The format is cell-based. The conditions noted are these: Staphylococcus aureus, ATCC29213, read-out: S. aureus MIC (μg/mL) Activity Range, S. aureus (ATCC29213). In a few lines:
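Activity is binned (A ≤0.25 μg/mL; B >0.25–1.0; C >1.0–16; D >16 μg/mL) from MICs determined per CLSI by broth microdilution or agar dilution, on S. aureus ATCC 29213 plus an FtsZ-G196A mutant strain.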
With `CCOC(=O)COCC(Oc1ccc(F)c(C(N)=O)c1F)c1nc(-c2ccc(C(F)(F)F)cc2)c(Br)o1` (centres unmarked) [Compound 84, ethyl 2-(2-(5-bromo-4-(4-(trifluoromethyl)phenyl)oxazol-2-yl)-2-(3-carbamoyl-2,4-difluorophenoxy)ethoxy)acetate], the MIC lay within 0.25 to 1 µg/mL (≈ 0.421 to 1.69 µM).
Take `Cc1noc(-c2ccc(-c3nc(C(CO)Oc4ccc(F)c(C(N)=O)c4F)oc3Br)cc2)n1` (centres unmarked) [Compound 85, 3-(1-(5-bromo-4-(4-(3-methyl-1,2,4-oxadiazol-5-yl)phenyl)oxazol-2-yl)-2-hydroxyethoxy)-2,6-difluorobenzamide]: the MIC lay within 1 to 16 µg/mL (≈ 1.92 to 30.7 µM).
As to `NC(=O)c1c(F)ccc(OC(COCC(=O)O)c2nc(-c3ccc(C(F)(F)F)cc3)c(Br)o2)c1F` (centres unmarked) [Compound 86, 2-(2-(5-bromo-4-(4-(trifluoromethyl)phenyl)oxazol-2-yl)-2-(3-carbamoyl-2,4-difluorophenoxy)ethoxy)acetic acid], the MIC was greater than 16 µg/mL.
In the case of `CNC(=O)CC(Oc1ccc(F)c(C(N)=O)c1F)c1nc(-c2ccc(C(F)(F)F)cc2)c(Br)o1` (centres unmarked) [Compound 87, 3-(1-(5-bromo-4-(4-(trifluoromethyl)phenyl)oxazol-2-yl)-3-(methylamino)-3-oxopropoxy)-2,6-difluorobenzamide] it was 0.25 to 1 µg/mL (≈ 0.456 to 1.82 µM); in that of `CN(C)C(=O)CC(Oc1ccc(F)c(C(N)=O)c1F)c1nc(-c2ccc(C(F)(F)F)cc2)c(Br)o1` (centres unmarked) [Compound 88, 3-(1-(5-bromo-4-(4-(trifluoromethyl)phenyl)oxazol-2-yl)-3-(dimethylamino)-3-oxopropoxy)-2,6-difluorobenzamide], 1 to 16 µg/mL (≈ 1.78 to 28.5 µM); in that of `CC(=O)OCCCC(Oc1ccc(F)c(C(N)=O)c1F)c1nc(-c2ccc(C(F)(F)F)cc2)c(Br)o1` (centres unmarked) [Compound 89, 4-(5-bromo-4-(4-(trifluoromethyl)phenyl)oxazol-2-yl)-4-(3-carbamoyl-2,4-difluorophenoxy)butyl acetate], 0.25 to 1 µg/mL.
For `NC(=O)c1c(F)ccc(OC(CCCO)c2nc(-c3ccc(C(F)(F)F)cc3)c(Br)o2)c1F` (centres unmarked) [Compound 90, 3-(1-(5-bromo-4-(4-(trifluoromethyl)phenyl)oxazol-2-yl)-4-hydroxybutoxy)-2,6-difluorobenzamide], the MIC was 0.25 to 1 µg/mL (≈ 0.467 to 1.87 µM).
Turning to `NC(=O)c1c(F)ccc(OC(CCC(=O)O)c2nc(-c3ccc(C(F)(F)F)cc3)c(Br)o2)c1F` (centres unmarked) [Compound 91, 4-(5-bromo-4-(4-(trifluoromethyl)phenyl)oxazol-2-yl)-4-(3-carbamoyl-2,4-difluorophenoxy)butanoic acid], the MIC is 1 to 16 µg/mL (≈ 1.82 to 29.1 µM).
Turning to `CC(=O)NNC(=O)CCC(Oc1ccc(F)c(C(N)=O)c1F)c1nc(-c2ccc(C(F)(F)F)cc2)c(Br)o1` (centres unmarked) [Compound 92, 3-(4-(2-acetylhydrazinyl)-1-(5-bromo-4-(4-(trifluoromethyl)phenyl)oxazol-2-yl)-4-oxobutoxy)-2,6-difluorobenzamide], the MIC lay in the range of 1 to 16 µg/mL (≈ 1.65 to 26.4 µM).
As for `CNC(=O)CCC(Oc1ccc(F)c(C(N)=O)c1F)c1nc(-c2ccc(C(F)(F)F)cc2)c(Br)o1` (centres unmarked) [Compound 93, 3-(1-(5-bromo-4-(4-(trifluoromethyl)phenyl)oxazol-2-yl)-4-(methylamino)-4-oxobutoxy)-2,6-difluorobenzamide], the MIC was 0.25 to 1 µg/mL (≈ 0.445 to 1.78 µM).
In the case of `CN(C)C(=O)CCC(Oc1ccc(F)c(C(N)=O)c1F)c1nc(-c2ccc(C(F)(F)F)cc2)c(Br)o1` (centres unmarked) [Compound 94, 3-(1-(5-bromo-4-(4-(trifluoromethyl)phenyl)oxazol-2-yl)-4-(dimethylamino)-4-oxobutoxy)-2,6-difluorobenzamide] it was less than 0.25 µg/mL; in that of `NCCC(Oc1ccc(F)c(C(N)=O)c1F)c1nc(-c2ccc(C(F)(F)F)cc2)c(Br)o1` (centres unmarked) [Compound 95, 3-(3-amino-1-(5-bromo-4-(4-(trifluoromethyl)phenyl)oxazol-2-yl)propoxy)-2,6-difluorobenzamide], greater than 16 µg/mL.
In the case of `NC(=O)CC(Oc1ccc(F)c(C(N)=O)c1F)c1nc(-c2ccc(C(F)(F)F)cc2)c(Br)o1` (centres unmarked) [Compound 96, 3-(3-amino-1-(5-bromo-4-(4-(trifluoromethyl)phenyl)oxazol-2-yl)-3-oxopropoxy)-2,6-difluorobenzamide] it was 1 to 16 µg/mL (≈ 1.87 to 29.9 µM).
As for `Cc1nnc(CCC(Oc2ccc(F)c(C(N)=O)c2F)c2nc(-c3ccc(C(F)(F)F)cc3)c(Br)o2)o1` (centres unmarked) [Compound 97, 3-(1-(5-bromo-4-(4-(trifluoromethyl)phenyl)oxazol-2-yl)-3-(5-methyl-1,3,4-oxadiazol-2-yl)propoxy)-2,6-difluorobenzamide], the figure is 1 to 16 µg/mL (≈ 1.7 to 27.2 µM); as for `CN(C)CCC(Oc1ccc(F)c(C(N)=O)c1F)c1nc(-c2ccc(C(F)(F)F)cc2)c(Br)o1` (centres unmarked) [Compound 98, 3-(1-(5-bromo-4-(4-(trifluoromethyl)phenyl)oxazol-2-yl)-3-(dimethylamino)propoxy)-2,6-difluorobenzamide], 1 to 16 µg/mL (≈ 1.82 to 29.2 µM).
Take `NC(=O)c1c(F)ccc(OC(c2cccnc2)c2nc(-c3ccc(Cl)cc3)c(Br)o2)c1F` (centres unmarked) [Compound 99, 3-((5-bromo-4-(4-chlorophenyl)oxazol-2-yl)(pyridin-3-yl)methoxy)-2,6-difluorobenzamide]: the MIC was 1 to 16 µg/mL (≈ 1.92 to 30.7 µM).
For the compound `CC(=O)NNC(=O)CC(Oc1ccc(F)c(C(N)=O)c1F)c1nc(-c2ccc(C(F)(F)F)cc2)c(Br)o1` (centres unmarked) [Compound 100, 3-(3-(2-acetylhydrazinyl)-1-(5-bromo-4-(4-(trifluoromethyl)phenyl)oxazol-2-yl)-3-oxopropoxy)-2,6-difluorobenzamide], the MIC lay within 1 to 16 µg/mL (≈ 1.69 to 27.1 µM).
As for `NC(=O)CCC(Oc1ccc(F)c(C(N)=O)c1F)c1nc(-c2ccc(C(F)(F)F)cc2)c(Br)o1` (centres unmarked) [Compound 101, 3-(4-amino-1-(5-bromo-4-(4-(trifluoromethyl)phenyl)oxazol-2-yl)-4-oxobutoxy)-2,6-difluorobenzamide], the figure is 0.25 to 1 µg/mL (≈ 0.456 to 1.82 µM).
With `C=CC(Oc1ccc(F)c(C(N)=O)c1F)c1nc(-c2ccc(C(F)(F)F)cc2)c(Br)o1` (centres unmarked) [Compound 102, 3-((1-(5-bromo-4-(4-(trifluoromethyl)phenyl)oxazol-2-yl)allyl)oxy)-2,6-difluorobenzamide], the MIC was in the range of 1 to 16 µg/mL (≈ 1.99 to 31.8 µM).
Regarding `COCC(Oc1ccc(F)c(C(N)=O)c1F)c1nc(-c2ccc(C(F)(F)F)cc2)c(Br)o1` (centres unmarked) [Compound 103, 3-(1-(5-bromo-4-(4-(trifluoromethyl)phenyl)oxazol-2-yl)-2-methoxyethoxy)-2,6-difluorobenzamide], the MIC fell in the range of 0.25 to 1 µg/mL (≈ 0.48 to 1.92 µM).
For `C=CCC(Oc1ccc(F)c(C(N)=O)c1F)c1nc(-c2ccc(Cl)cc2)c(Br)o1` (centres unmarked) [Compound 104, 3-((1-(5-bromo-4-(4-chlorophenyl)oxazol-2-yl)but-3-en-1-yl)oxy)-2,6-difluorobenzamide], the MIC was 1 to 16 µg/mL (≈ 2.07 to 33.1 µM).
As to `NC(=O)c1c(F)ccc(OC(COC2CCCCO2)c2nc(-c3ccc(C(F)(F)F)cc3)c(Br)o2)c1F` (centres unmarked) [Compound 105, 3-(1-(5-bromo-4-(4-(trifluoromethyl)phenyl)oxazol-2-yl)-2-((tetrahydro-2H-pyran-2-yl)oxy)ethoxy)-2,6-difluorobenzamide], the MIC lay in the range of 0.25 to 1 µg/mL (≈ 0.423 to 1.69 µM).
In the case of `C=CCC(Oc1ccc(F)c(C(N)=O)c1F)c1nc(-c2ccc(C(F)(F)F)cc2)c(Br)o1` (centres unmarked) [Compound 106, 3-((1-(5-bromo-4-(4-(trifluoromethyl)phenyl)oxazol-2-yl)but-3-en-1-yl)oxy)-2,6-difluorobenzamide] it was 1 to 16 µg/mL (≈ 1.93 to 30.9 µM); in that of `CN(C)C(=O)OCC(Oc1ccc(F)c(C(N)=O)c1F)c1nc(-c2ccc(C(F)(F)F)cc2)c(Br)o1` (centres unmarked) [Compound 107, 2-(5-bromo-4-(4-(trifluoromethyl)phenyl)oxazol-2-yl)-2-(3-carbamoyl-2,4-difluorophenoxy)ethyl dimethylcarbamate], less than 0.25 µg/mL.
As for `COc1cccc(-c2nc(C(COC(C)=O)Oc3ccc(F)c(C(N)=O)c3F)oc2Br)c1` (centres unmarked) [Compound 108, 2-(5-bromo-4-(3-methoxyphenyl)oxazol-2-yl)-2-(3-carbamoyl-2,4-difluorophenoxy)ethyl acetate], the figure is greater than 16 µg/mL; as for `NC(=O)c1c(F)ccc(OC(CO)c2nc(-c3ccc(O)cc3)c(Br)o2)c1F` (centres unmarked) [Compound 110, 3-(1-(5-bromo-4-(4-hydroxyphenyl)oxazol-2-yl)-2-hydroxyethoxy)-2,6-difluorobenzamide], greater than 16 µg/mL.
As for `COc1ccc(-c2nc(C(COC(C)=O)Oc3ccc(F)c(C(N)=O)c3F)oc2Br)cc1` (centres unmarked) [Compound 111, 2-(5-bromo-4-(4-methoxyphenyl)oxazol-2-yl)-2-(3-carbamoyl-2,4-difluorophenoxy)ethyl acetate], the figure is 1 to 16 µg/mL.
Regarding `COc1ccc(-c2nc(C(CO)Oc3ccc(F)c(C(N)=O)c3F)oc2Br)cc1` (centres unmarked) [Compound 112, 3-(1-(5-bromo-4-(4-methoxyphenyl)oxazol-2-yl)-2-hydroxyethoxy)-2,6-difluorobenzamide], the MIC is 1 to 16 µg/mL (≈ 2.13 to 34.1 µM).
Regarding `CNC(=O)OCC(Oc1ccc(F)c(C(N)=O)c1F)c1nc(-c2ccc(C(F)(F)F)cc2)c(Br)o1` (centres unmarked) [Compound 113, 2-(5-bromo-4-(4-(trifluoromethyl)phenyl)oxazol-2-yl)-2-(3-carbamoyl-2,4-difluorophenoxy)ethyl methylcarbamate], the MIC lay in the range of 0.25 to 1 µg/mL (≈ 0.443 to 1.77 µM).
As to `NC(=O)c1c(F)ccc(OC(Cn2ccnc2)c2nc(-c3ccc(C(F)(F)F)cc3)c(Br)o2)c1F` (centres unmarked) [Compound 114, 3-(1-(5-bromo-4-(4-(trifluoromethyl)phenyl)oxazol-2-yl)-2-(1H-imidazol-1-yl)ethoxy)-2,6-difluorobenzamide], the MIC fell in the range of 1 to 16 µg/mL (≈ 1.79 to 28.7 µM).
`CC(=O)OCC(Oc1ccc(F)c(C(N)=O)c1F)c1nc(-c2ccc(OC(F)(F)F)cc2)c(Br)o1` (centres unmarked) [Compound 115, 2-(5-bromo-4-(4-(trifluoromethoxy)phenyl)oxazol-2-yl)-2-(3-carbamoyl-2,4-difluorophenoxy)ethyl acetate]: the MIC was less than 0.25 µg/mL.
For `NC(=O)c1c(F)ccc(OC(CO)c2nc(-c3ccc(OC(F)(F)F)cc3)c(Br)o2)c1F` (centres unmarked) [Compound 116, 3-(1-(5-bromo-4-(4-(trifluoromethoxy)phenyl)oxazol-2-yl)-2-hydroxyethoxy)-2,6-difluorobenzamide], the MIC is less than 0.25 µg/mL.
